# Source: article PMC10733197, “Utilization of Rosuvastatin and Endogenous Biomarkers in Evaluating the Impact of Ritlecitinib on BCRP, OATP1B1, and OAT3 Transporter Activity” (Pharmaceutical Research, 2023)
# Several values for one entry are separate records, joined by “and”; a condition that tells them apart may be missing. Equal values may be shown once.
# Assays:
# OAT3 = molecular target: T1, OAT3 (Homo sapiens, UniProt Q8TCC7); experiment: OAT3-mediated 3H-E3S uptake inhibition in transfected HEK293 cells; format: cell-based; settings: for Fraction Inhibited / Triggers Drug Interaction Cutoff / Cmax,u/IC50 ratio: OAT3; for Fraction Inhibited: Cmax,u/(Cmax,u + IC50) (Eq. 2); for Triggers Drug Interaction Cutoff: Cmax,u/IC50 cutoff 0.1 (FDA); for Triggers Drug Interaction Cutoff / Cmax,u/IC50 ratio: 0.02 (EMA); for Cmax,u/IC50 ratio: cutoff 0.1 (FDA), ritlecitinib 200 mg; for IC50: renal OAT3, E3S as substrate (0.1 µM per table footnote), 3 min, HEK293, mean ± SD, n = 3
# T1 construct: expressed in transfected cells; host or cells: HEK293
# T1 sequence (Q8TCC7 1-542): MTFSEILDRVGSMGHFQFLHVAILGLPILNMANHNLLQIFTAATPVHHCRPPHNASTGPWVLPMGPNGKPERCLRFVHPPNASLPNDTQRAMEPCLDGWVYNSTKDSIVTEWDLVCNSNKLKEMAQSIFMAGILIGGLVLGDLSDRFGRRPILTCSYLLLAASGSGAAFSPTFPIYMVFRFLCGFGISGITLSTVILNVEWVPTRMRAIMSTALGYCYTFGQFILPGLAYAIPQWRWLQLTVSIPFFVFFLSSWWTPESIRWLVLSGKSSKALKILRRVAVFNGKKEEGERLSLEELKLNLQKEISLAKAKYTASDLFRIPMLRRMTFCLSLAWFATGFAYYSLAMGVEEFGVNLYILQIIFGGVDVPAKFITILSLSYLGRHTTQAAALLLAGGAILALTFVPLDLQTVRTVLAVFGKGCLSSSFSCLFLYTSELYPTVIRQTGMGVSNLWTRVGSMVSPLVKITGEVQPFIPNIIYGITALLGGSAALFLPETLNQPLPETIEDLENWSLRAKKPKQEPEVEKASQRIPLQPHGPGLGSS
# Procedure: (§1) Sources of human embryonic kidney (HEK) 293 cells expressing individual transfected human solute carriers (SLC), test substrates, and cell culture reagents, as well as detailed cell culture methods, incubations, and sample processing, have been described previously. SLC included hepatic OATP1B1, OATP1B3, and renal OAT1 and OAT3. […] Likewise, the uptake of non-labeled rosuvastatin (Biosynth, San Diego, CA) at 0.3—0.5 µM was determined for OATP1B1 and OATP1B3 at 1—3 min, and CP-I (Frontier Specialty Chemicals, Logan, UT) at 0.1 µM was determined for OATP1B1 and OATP1B3 at 10 min [14].
# (§2) In all cases, ritlecitinib (0.018 to 1000 µM) and metabolite M2 (0.018 to 300 µM) was tested over a wide range of final concentrations dissolved in dimethyl sulfoxide (the final concentration of dimethyl sulfoxide in the assays was 1% v/v). For each transporter, the IC50 was estimated using a four-parameter logistic equation (Eq. 1) using GraphPad Prism software (GraphPad Software Inc, La Jolla, CA).1 %UptakeActivity=Bottom+(Top-Bottom)/1+10^(LogIC50-inhib*HillSlope)
# (§3) At the end of the uptake and inhibition experiment, cellular accumulation of ^3H-PAH and ^3H-E3S was determined using liquid scintillation counting as previously described. Rosuvastatin uptake was determined using a tandem high performance liquid chromatography (LC)-mass spectrometry (MS) assay.
# (§4) Assumes no substrate-dependent shift in IC50 versus PDA.^1 Each OAT form was singularly transfected in human embryonic kidney 293 cells.
# [1] = Inhibitor exposure estimates and PK inputs for static drug interaction risk assessment; settings: for Cmax,u: maximal free plasma concentration (Cmax × fu) at ritlecitinib 200 mg
# OATP1B1 = molecular target: T2, OATP1B1 (Homo sapiens, UniProt Q9Y6L6); experiment: OATP1B1-mediated rosuvastatin uptake inhibition in transfected HEK293 cells; format: cell-based; settings: for R-value: 1 + (Imax,inlet,u/IC50), cutoff 1.1 (FDA), 1.04 (EMA); for IC50: hepatic OATP1B1, RSV 0.3–0.5 µM as substrate, 1—3 min, HEK293, mean ± SD, n = 3
# T2 construct: expressed in transfected cells; host or cells: HEK293
# T2 sequence (Q9Y6L6 1-691): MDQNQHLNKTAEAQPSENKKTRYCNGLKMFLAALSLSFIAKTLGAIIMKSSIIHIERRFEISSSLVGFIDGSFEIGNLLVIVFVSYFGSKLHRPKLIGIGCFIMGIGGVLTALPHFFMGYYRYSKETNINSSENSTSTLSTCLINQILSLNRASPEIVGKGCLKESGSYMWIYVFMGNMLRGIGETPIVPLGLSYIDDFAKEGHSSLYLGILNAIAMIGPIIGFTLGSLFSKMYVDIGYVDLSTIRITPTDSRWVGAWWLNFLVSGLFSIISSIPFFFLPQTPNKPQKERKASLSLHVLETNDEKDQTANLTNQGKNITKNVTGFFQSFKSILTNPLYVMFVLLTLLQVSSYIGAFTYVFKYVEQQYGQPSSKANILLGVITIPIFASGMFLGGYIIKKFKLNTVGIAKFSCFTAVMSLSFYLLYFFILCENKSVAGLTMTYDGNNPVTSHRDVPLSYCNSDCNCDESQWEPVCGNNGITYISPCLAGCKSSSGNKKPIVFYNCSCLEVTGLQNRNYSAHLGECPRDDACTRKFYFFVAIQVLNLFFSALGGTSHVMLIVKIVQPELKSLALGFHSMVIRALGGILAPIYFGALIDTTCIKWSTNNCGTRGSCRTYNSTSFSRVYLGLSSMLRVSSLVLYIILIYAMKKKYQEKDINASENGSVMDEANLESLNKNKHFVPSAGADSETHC
# Procedure: as §1, §2, §3
# OAT1 = molecular target: T3, OAT1 (Homo sapiens, UniProt Q4U2R8); experiment: OAT1-mediated 3H-PAH uptake inhibition in transfected HEK293 cells; format: cell-based; parameters: expressed in transfected cells; host or cells: HEK293; settings: for Fraction Inhibited / Triggers Drug Interaction Cutoff / Cmax,u/IC50 ratio: OAT1; for Fraction Inhibited: Cmax,u/(Cmax,u + IC50) (Eq. 2); for Triggers Drug Interaction Cutoff: Cmax,u/IC50 cutoff 0.1 (FDA); for Triggers Drug Interaction Cutoff / Cmax,u/IC50 ratio: 0.02 (EMA); for Cmax,u/IC50 ratio: cutoff 0.1 (FDA), ritlecitinib 200 mg; for IC50: renal OAT1, PAH 0.5 µM as substrate, 4 min, HEK293, mean ± SD, n = 3
# T3 sequence (Q4U2R8 1-563): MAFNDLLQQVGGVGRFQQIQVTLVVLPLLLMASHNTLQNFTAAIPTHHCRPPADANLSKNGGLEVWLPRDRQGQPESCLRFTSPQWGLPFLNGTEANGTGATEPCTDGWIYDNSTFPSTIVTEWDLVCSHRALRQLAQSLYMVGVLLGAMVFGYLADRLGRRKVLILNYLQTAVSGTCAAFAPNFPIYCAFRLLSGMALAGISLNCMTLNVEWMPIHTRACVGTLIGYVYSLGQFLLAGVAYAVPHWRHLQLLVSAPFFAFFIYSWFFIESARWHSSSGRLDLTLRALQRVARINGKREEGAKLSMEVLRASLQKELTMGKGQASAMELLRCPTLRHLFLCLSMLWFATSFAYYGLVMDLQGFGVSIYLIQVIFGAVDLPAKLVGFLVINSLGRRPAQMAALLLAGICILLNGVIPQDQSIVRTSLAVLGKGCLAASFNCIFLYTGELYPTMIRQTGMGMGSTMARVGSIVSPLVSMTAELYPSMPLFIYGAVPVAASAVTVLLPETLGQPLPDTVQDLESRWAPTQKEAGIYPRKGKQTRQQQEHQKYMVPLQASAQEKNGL
# Procedure: as §1, §2, §3, §4
SMILES,Fraction Inhibited (OAT3),Triggers Drug Interaction Cutoff (OAT3),"Cmax,u/IC50 ratio (OAT3)",IC50 (OAT3),"Cmax,u [1]",Triggers Drug Interaction Cutoff (OATP1B1; OATP1B1 (RSV)),IC50 (OATP1B1),Fraction Inhibited (OAT1),Triggers Drug Interaction Cutoff (OAT1),"Cmax,u/IC50 ratio (OAT1)",IC50 (OAT1),other results
"C=CC(=O)N1C[C@H](Nc2ncnc3[nH]ccc23)CC[C@@H]1C [Ritlecitinib, ritlecitinib]",0.1,Yes,0.11,41 ± 3 µM,4.7 µM,Yes,312 ± 19 µM,0.03,Yes,0.03,156 ± 6 µM,"Fraction Inhibited (OAT3; listed as ritlecitinib): ≤ 0.1; Imax,inlet,u ([1]; estimated maximal free hepatic portal concentration, ritlecitinib 200 mg): 31.7 µM; [I]2 ([1]; oral molar dose of ritlecitinib (200 mg)/250 mL): 2803 µM; R-value (OATP1B1; OATP1B1 (RSV)): 1.10; R-value (OATP1B1; OATP1B1 (RSV), listed as ritlecitinib): 1.1; Fraction Inhibited (OATP1B1; OATP1B1 (RSV), Imax,inlet,u/(Imax,inlet,u + IC50) (Eq. 1)): 0.09; Fraction Inhibited (OATP1B1; OATP1B1 (RSV), Imax,inlet,u/(Imax,inlet,u + IC50) (Eq. 1), listed as ritlecitinib): ≤ 0.1; Fraction Inhibited (OAT1; listed as ritlecitinib): ≤ 0.1"
C[C@H]1CC[C@@H](Nc2ncnc3[nH]ccc23)CN1C(=O)CCSC[C@H](N)C(=O)O [M2],< 0.01,No,< 0.01,> 300 µM,1.4 μM and 1.4^j μM,Yes,2 ± 0.03 µM,< 0.01,No,< 0.01,> 300 µM,"% inhibition at the highest concentration tested (OAT3; OAT3 (E3S), highest concentration 300 µM): 43%; Cmax,u/IC50 ratio (OATP1B1; OATP1B1 (RSV), Cmax,u used for metabolite M2): 0.70; Fraction Inhibited (OATP1B1; OATP1B1 (RSV), Cmax,u/(Cmax,u + IC50) for M2 (Eq. 3)): 0.4; % inhibition at the highest concentration tested (OAT1; OAT1 (PAH), highest concentration 300 µM): 40%"
